Type in all cases: cell-based
The test system of experiment [1] is Staphylococcus aureus SG 511. Put plainly: Serial dilution test in the microtiter system, MIC against S. aureus SG 511. Conditions: SG511, minimum inhibitory concentration, 37° C., 18 to 20 hours. The protocol:
(§1) The tests were performed using the serial dilution test in the microtiter system. The effect of the test compounds on bacteriostasis was examined at the following concentrations: 80, 40, 20, 10, 5, 2.5, 1.25, 0.6, 0.3, 0.08 and 0.02 μgm/ml. The nutrient medium consisted of 10 gm of peptone, 8 gm of meat extract oxoid, 3 gm of sodium chloride, and 2 gm of sec. sodium phosphate diluted with distilled water to […] (pH 7.2-7.4). Only in the test against streptococci 1% of glucose was added. The age of the primary cultures was approximately 20 hours. The standardization of the bacteria suspension was effected using a photometer according to the method of Eppendorf (test tube .phi. 14 mm, filter 546 nm), using for comparison a barium sulfate suspension formed by the addition of 3.0 ml of 1% barium chloride solution to 97 ml of 1% sulfuric acid. After the standardization,Streptococcus aronson was further diluted to a concentration of 1:15, and the other bacteria to a concentration of 1:1500, using a sodium chloride solution.
(§2) 16 mgm of the particular test compound were put into a 10 ml measuring flask, and the flask was subsequently filled to the mark with solvent. The further dilution series was standardized with distilled water or the appropriate solvent.
(§3) The cavities of the microtiter plates were filled with 0.2 ml of nutrient medium. 0.01 ml of the appropriate test compound solution was then added, followed by inoculation with 0.01 ml of the standardized bacteria suspension. The bacteria were incubated at 37° C. for 18 to 20 hours. Control tests using only the solvent were carried out simultaneously.
(§4) The measurement was carried out macroscopically to determine the minimum inhibitory concentration (the lowest still bacteriostatically effective concentration).
(§5) The following test organisms were used:
(§6) Staphylococcus aureus SG 511, St. aureus E 88 (β-lactamase carrier), Escherichia coli ATCC 11 775, Pseudomonas aeruginosa Hamburgensis and Pseudomonas aeruginosa Walter, Serratia macrescens ATCC 13 880, Klebsiella pneumoniae ATCC 10 031 and 272, Proteus mirabilis Hamburgensis, Proteus rettgeri Eb. cloaceae ATCC 13047, and E. coli R+TEM (β-lactamase carrier).
(§7) The following tables show the determined minimum inhibitory concentrations (MIC) for a few representative compounds (E=Na) of the present invention, and two known cephalosporins for comparison: […]

Another experiment has as its system St. aureus E 88. Kind of experiment: Serial dilution test in the microtiter system, MIC against S. aureus E 88 (β-lactamase carrier). Conditions: Staphylococcus aureus, E88, minimum inhibitory concentration, 37° C., 18 to 20 hours. On the procedure: as §1, §2, §3, §4, §5, §6, §7
The test system of experiment [2] is Escherichia coli ATCC 11 775. Kind of experiment: Serial dilution test in the microtiter system, MIC against E. coli ATCC 11775. Conditions: minimum inhibitory concentration, 37° C., 18 to 20 hours. On the procedure:
as §1, §2, §3, §4, §5, §6, §7

The test system of experiment [3] is Pseudomonas aeruginosa Hamburgensis. Kind of experiment: Serial dilution test in the microtiter system, MIC against Pseudomonas aeruginosa Hamburgensis. The settings on record: minimum inhibitory concentration, 37° C., 18 to 20 hours, read-out: MIC, Pseud. aerug. Hbg. On the procedure: as §1, §2, §3, §4, §5, §6, §7
Experiment [4] has as its system Pseudomonas aeruginosa Walter. Kind of experiment: Serial dilution test in the microtiter system, MIC against Pseudomonas aeruginosa Walter. The settings on record: minimum inhibitory concentration, 37° C., 18 to 20 hours, read-out: MIC, Pseud. aerug. Walter. On the procedure: as §1, §2, §3, §4, §5, §6, §7
Experiment [5] deals with Klebsiella pneumoniae ATCC 10 031. Put plainly: Serial dilution test in the microtiter system, MIC against Klebsiella pneumoniae ATCC 10031. The settings on record: minimum inhibitory concentration, 37° C., 18 to 20 hours, read-out: MIC, Klebs. pneum. ATCC 10031. On the procedure:
as §1, §2, §3, §4, §5, §6, §7

In experiment [6] the test system is Klebsiella pneumoniae 272. Put plainly: Serial dilution test in the microtiter system, MIC against Klebsiella pneumoniae 272. Conditions: minimum inhibitory concentration, 37° C., 18 to 20 hours, read-out: MIC, Klebs. pneum. 272. The protocol:
as §1, §2, §3, §4, §5, §6, §7

Experiment [7] has as its system Proteus mirabilis Hamburgensis. Put plainly: Serial dilution test in the microtiter system, MIC against Proteus mirabilis Hamburgensis. The settings on record: minimum inhibitory concentration, 37° C., 18 to 20 hours, read-out: MIC, Prot. Mir. Hbg. The protocol:
as §1, §2, §3, §4, §5, §6, §7

The subject of the next experiment is Proteus rettgeri. Kind of experiment: Serial dilution test in the microtiter system, MIC against Proteus rettgeri. Conditions: Providencia rettgeri; minimum inhibitory concentration; 37° C., 18 to 20 hours; read-out: MIC, Prot. rettg. On the procedure: as §1, §2, §3, §4, §5, §6, §7
Another experiment has as its system Eb. cloaceae ATCC 13047. Kind of experiment: Serial dilution test in the microtiter system, MIC against Eb. cloaceae ATCC 13047. The settings on record: minimum inhibitory concentration; 37° C., 18 to 20 hours. The protocol:
as §1, §2, §3, §4, §5, §6, §7

The test system of a further experiment is E. coli R+TEM. Kind of experiment: Serial dilution test in the microtiter system, MIC against E. coli R+TEM (β-lactamase carrier). The settings on record: Escherichia coli, read-out: MIC, E. coli R + TEM. The protocol:
as §1, §2, §3, §4, §5, §6, §7

For experiment [8], the system named is Serratia macrescens ATCC 13 880. Kind of experiment: Serial dilution test in the microtiter system, MIC against Serratia marcescens ATCC 13880. The settings on record: read-out: MIC, Serr. marcesc. ATCC 13880. The protocol:
as §1, §2, §3, §4, §5, §6, §7

In brackets after ≈: the same amount, converted by molar mass.

`Cc1nnc(SCC2=C(C(=O)O)N3C(=O)[C@@H](NC(=O)[C@H](NC(=O)Nc4cnc(NC5CCC(O)CC5)nc4O)c4ccc(O)cc4)[C@H]3SC2)s1` (stereo partly drawn) [G]: the MIC in experiment [1] is 1 mg/L (≈ 1.34 µM); against St. aureus E 88 it was 16 mg/L (≈ 21.5 µM); in experiment [2], 0.5 mg/L (≈ 0.672 µM); in experiment [3] it was 16 mg/L (≈ 21.5 µM); in experiment [4], 16 mg/L (≈ 21.5 µM); in experiment [5], 2 mg/L (≈ 2.69 µM). For the same molecule, the MIC in [6] was determined as 2 mg/L (≈ 2.69 µM); in experiment [7], 0.5 mg/L (≈ 0.672 µM); in the experiment on Proteus rettgeri, 1 mg/L (≈ 1.34 µM); in the experiment on Eb. cloaceae ATCC 13047 it was 2 mg/L (≈ 2.69 µM); with E. coli R+TEM, 16 mg/L; in [8], 2 mg/L (≈ 2.69 µM).
`CNS(=O)(=O)c1ccc(Nc2ncc(NC(=O)N[C@@H](C(=O)N[C@@H]3C(=O)N4C(C(=O)O)=C(COC(C)=O)CS[C@H]34)c3ccc(O)cc3)c(O)n2)cc1` [H]: the MIC in experiment [1] was 1 mg/L (≈ 1.35 µM); in the experiment with St. aureus E 88, 16 mg/L (≈ 21.5 µM); in experiment [2] it was 0.13 mg/L (≈ 0.175 µM); in [3], 4 mg/L (≈ 5.39 µM); in experiment [4] it was 4 mg/L (≈ 5.39 µM); in experiment [5] it was 0.5 mg/L (≈ 0.673 µM). In addition, the MIC was found to be 0.5 mg/L (≈ 0.673 µM) in [6]; 0.6 mg/L (≈ 0.808 µM) in [7]; 0.5 mg/L (≈ 0.673 µM) in the experiment on Proteus rettgeri; 2 mg/L (≈ 2.69 µM) with Eb. cloaceae ATCC 13047; 16 mg/L in the experiment with E. coli R+TEM; 0.5 mg/L (≈ 0.673 µM) in experiment [8].
On to `CNc1nnc(SCC2=C(C(=O)O)N3C(=O)[C@@H](NC(=O)[C@H](NC(=O)Nc4cnc(Nc5ccc(S(=O)(=O)NC)cc5)nc4O)c4ccc(O)cc4)[C@H]3SC2)s1` [J], for which the minimum inhibitory concentration (MIC) in experiment [1] worked out at 1 mg/L (≈ 1.2 µM); against St. aureus E 88, 16 mg/L (≈ 19.3 µM); in [2], 0.5 mg/L (≈ 0.602 µM); in [3], 8 mg/L (≈ 9.64 µM); in [4], 8 mg/L (≈ 9.64 µM); in [5] it was 0.5 mg/L (≈ 0.602 µM). Besides, the MIC was found to be 0.25 mg/L (≈ 0.301 µM) in [6]; 0.25 mg/L (≈ 0.301 µM) in experiment [7]; 1 mg/L (≈ 1.2 µM) in the experiment with Proteus rettgeri; 1 mg/L (≈ 1.2 µM) against Eb. cloaceae ATCC 13047; 8 mg/L in the experiment on E. coli R+TEM; 0.5 mg/L (≈ 0.602 µM) in [8].
Turning to `Cn1nnnc1SCC1=C(C(=O)O)N2C(=O)[C@@H](NC(=O)C(NC(=O)Nc3cnc(Nc4ccc(S(N)(=O)=O)cc4)nc3O)c3cccs3)[C@H]2SC1` (stereo partly drawn) [M], the MIC was found to be 0.5 mg/L (≈ 0.645 µM) in experiment [1]; 4 mg/L (≈ 5.16 µM) against St. aureus E 88; 0.13 mg/L (≈ 0.168 µM) in [2]; 4 mg/L (≈ 5.16 µM) in experiment [3]; 4 mg/L (≈ 5.16 µM) in [4]; 0.25 mg/L (≈ 0.323 µM) in experiment [5]. In addition, the MIC in experiment [6] came to 0.25 mg/L (≈ 0.323 µM); in experiment [7] it was 0.13 mg/L (≈ 0.168 µM); with Proteus rettgeri, 0.5 mg/L (≈ 0.645 µM); in the experiment on Eb. cloaceae ATCC 13047, 0.5 mg/L (≈ 0.645 µM); in the experiment with E. coli R+TEM it was 4 mg/L; in [8] it was 0.25 mg/L (≈ 0.323 µM).
Consider `CNS(=O)(=O)c1ccc(Nc2ncc(NC(=O)N[C@@H](C(=O)N[C@@H]3C(=O)N4C(C(=O)O)=C(CSc5nnc(C)s5)CS[C@H]34)c3ccc(O)cc3)c(O)n2)cc1` [N], for which the MIC in experiment [1] came out at 1 mg/L (≈ 1.23 µM); with St. aureus E 88 it was 8 mg/L (≈ 9.82 µM); in experiment [2], 0.25 mg/L (≈ 0.307 µM); in [3] it was 4 mg/L (≈ 4.91 µM); in experiment [4] it was 4 mg/L (≈ 4.91 µM); in [5], 0.25 mg/L (≈ 0.307 µM). Besides, the MIC in [6] was 0.5 mg/L (≈ 0.614 µM); in [7] it was 0.5 mg/L (≈ 0.614 µM); in the experiment with Proteus rettgeri, 0.5 mg/L (≈ 0.614 µM); in the experiment with Eb. cloaceae ATCC 13047, 1 mg/L (≈ 1.23 µM); with E. coli R+TEM, 4 mg/L; in [8], 0.25 mg/L (≈ 0.307 µM).

(Values after patent US4316898A, “Cephalosporins” (Boehringer Ingelheim KG, priority 1979, dated 1982).)
